{"source": "patent US4197403A", "about": "“4-Aminosubstituted imidazo(1,2-A)quinoxalines” (Westwood Pharmaceuticals Inc., priority 1977, dated 1980)", "key": {"rat paw edema": {"system": "rat paw edema", "assay": "Rat paw edema assay, oral dosing", "assay_type": "in vivo", "settings": "four hours after drug; for change in vivo at 100 mg/kg / change in vivo at 400 mg/kg: Rattus norvegicus, 4 h, read-out: % Difference from Control", "procedure": "(§1) The anti-inflammatory activity of representative compounds of this invention was determined by the rat paw edema assay both by local administration (Table XI below) and by oral dosing (Table XII below). For the oral dosing, the procedure of C. A. Winter, E. A. Risley and G. W. Nuss, Proc. Soc. Exp. Biol. Med. 111, 544 (1962) was employed with measurement taken four hours after the drug was administered.\n(§2) Tables XI and XII report the anti-inflammatory activity of the compounds tested as % difference in the edema or swelling as compared with the control. These Tables also give the response in many instances of more than one dose level of the same drug."}, "Trichophyton ajelloi": {"system": "Trichophyton ajelloi", "assay": "Antifungal activity, agar dilution method: T. ajelloi", "assay_type": "cell-based", "settings": "Arthroderma uncinatum, read-out: Antifungal Activity, Parts Per Million Inhibitions of Fungus and Yeast Species: T. ajelloi", "procedure": "(§3) Various compounds of this invention display antifungal and anti-yeast activity.\n(§4) In Table IX below are listed the antifungal activity of a number of compounds encompassed in the present invention. These were determined by the agar dilution method as described in Chapters 2 and 3 of Methods in Microbiology, Vol. 7B, edited by J. R. Norris and D. W. Ribbons, Academic Press, New York, 1972."}, "[1]": {"system": "Trichophyton mentagrophytes (ATCC No. 8757 and 9129)", "assay": "Antifungal activity, agar dilution method: T. mentagrophytes", "assay_type": "cell-based", "settings": "ATCC8757, agar dilution, read-out: Antifungal Activity, Parts Per Million Inhibitions of Fungus and Yeast Species: T. mentagrophytes", "procedure": "as §3, §4"}, "[2]": {"system": "Trichophyton rubrum (ATCC No. 10218 and 14001)", "assay": "Antifungal activity, agar dilution method: T. rubrum", "assay_type": "cell-based", "settings": "for Antifungal Activity, Parts Per Million Inhibitions of Fungus and Yeast Species: T. rubrum: agar dilution", "procedure": "as §3, §4"}, "[3]": {"assay": "Immunosuppressant activity (in words)"}, "[4]": {"system": "carrageenan rat paw edema", "assay": "Rat paw edema assay, local administration", "assay_type": "in vivo", "settings": "injected directly into paw, 1 μg, read-out: % Difference from Control", "procedure": "as §1\nThe local administration tests were carried out similarly except the irritant (carrageenan) and the test compound were injected simultaneously at time zero.\nas §2"}, "Candida tropicalis": {"system": "Candida tropicalis", "assay": "Antifungal activity, agar dilution method: C. tropicalis", "assay_type": "cell-based", "settings": "read-out: Antifungal Activity, Parts Per Million Inhibitions of Fungus and Yeast Species: C. tropicalis", "procedure": "as §3, §4"}}, "data": [{"smiles": "Cc1cccc(C(=O)Nc2ccccc2-n2ccnc2)c1", "note": "[Compound 36]", "values": [{"measurement": "% Difference from Control", "setting": "rat paw edema; 100 mg/kg", "value": -7, "unit": "%"}, {"measurement": "% Difference from Control", "setting": "rat paw edema; 400 mg/kg", "value": -68, "unit": "%"}]}, {"smiles": "O=C(Nc1ccccc1-n1ccnc1)c1cccc(Br)c1", "note": "[Compound 59]", "values": [{"measurement": "MIC", "setting": "Trichophyton ajelloi", "value": 100, "unit": "µg/mL"}, {"measurement": "MIC", "setting": "[1]", "value": 100, "unit": "µg/mL"}]}, {"smiles": "O=C(Nc1cccc(C(F)(F)F)c1)Nc1ccccc1-n1ccnc1", "note": "[Compound 82]", "values": [{"measurement": "MIC", "setting": "Trichophyton ajelloi", "value": 100, "unit": "µg/mL"}, {"measurement": "MIC", "setting": "[1]", "value": 100, "unit": "µg/mL"}, {"measurement": "MIC", "setting": "[2]; Trichophyton rubrum, ATCC10218, agar dilution, read-out: Antifungal Activity, Parts Per Million Inhibitions of Fungus and Yeast Species: T. rubrum", "value": 100, "unit": "µg/mL"}]}, {"smiles": "c1ccc2c(c1)ncc1nccn12", "note": "[Compound 109, imidazo[1,2-a]quinoxaline]", "values": [{"measurement": "immunosuppressant activity", "setting": "[3]", "value": "lacks immunosuppressant activity"}]}, {"smiles": "CCCCCc1nc2ccccc2n2ccnc12", "note": "[Compound 114]", "values": [{"measurement": "change in vivo at 0.001 mg", "setting": "[4]", "value": -68.2, "unit": "%"}]}, {"smiles": "CCCCCCCc1nc2ccccc2n2ccnc12", "note": "[Compound 116]", "values": [{"measurement": "MIC", "setting": "Trichophyton ajelloi", "value": 100, "unit": "µg/mL"}]}, {"smiles": "CCCCCCCCCCCCCCCc1nc2ccccc2n2ccnc12", "note": "[Compound 119]", "values": [{"measurement": "Antifungal Activity, Parts Per Million Inhibitions of Fungus and Yeast Species: T. rubrum", "setting": "[2]", "value": 8, "unit": "Parts Per Million"}]}, {"smiles": "CCCCCCCCCCCCCCCCCc1nc2ccccc2n2ccnc12", "note": "[Compound 120]", "values": [{"measurement": "Antifungal Activity, Parts Per Million Inhibitions of Fungus and Yeast Species: T. rubrum", "setting": "[2]", "value": 1, "unit": "Parts Per Million"}]}, {"smiles": "FC(F)(F)c1nc2ccccc2n2ccnc12", "note": "[Compound 122]", "values": [{"measurement": "change in vivo at 100 mg/kg", "setting": "rat paw edema; 100 mg/kg", "value": -17, "unit": "%"}, {"measurement": "change in vivo at 400 mg/kg", "setting": "rat paw edema; 400 mg/kg", "value": -68, "unit": "%"}]}, {"smiles": "c1ccc(-c2nc3ccccc3n3ccnc23)cc1", "note": "[Compound 131, 4-phenylimidazo[1,2-a]quinoxaline]", "values": [{"measurement": "immunosuppressant activity", "setting": "[3]", "value": "only minor activity"}]}, {"smiles": "CC(=O)Nc1ccc(-c2nc3ccccc3n3ccnc23)cc1", "note": "[Compound 155]", "values": [{"measurement": "change in vivo at 100 mg/kg", "setting": "rat paw edema; 100 mg/kg", "value": 70, "unit": "%"}, {"measurement": "change in vivo at 400 mg/kg", "setting": "rat paw edema; 400 mg/kg", "value": -25, "unit": "%"}]}, {"smiles": "CC(=O)Oc1ccc(-c2nc3ccccc3n3ccnc23)cc1", "note": "[Compound 163]", "values": [{"measurement": "MIC", "setting": "Candida tropicalis", "value": 100, "unit": "µg/mL"}]}]}
